{"source": "ChEMBL document CHEMBL5325441", "about": "“Current and emerging therapies for Achondroplasia: The dawn of precision medicine” (2023)", "key": {"Bone [1]": {"system": "Bone", "assay": "Induction of bone regrowth in achondroplasia FVB mouse model assessed as improvement in dwarfism by measuring femur size at 203 microg/kg, sc qd administered for 35 days", "assay_type": "functional", "conditions": "dose 203 µg/kg, time 35 day"}, "Bone [2]": {"system": "Bone", "assay": "Induction of bone regrowth in achondroplasia FVB mouse model assessed as improvement in dwarfism by measuring femur size at 203 microg/kg, sc administered as continuous infusion for 35 days", "assay_type": "functional", "conditions": "dose 203 µg/kg, time 35 day"}, "Bone [3]": {"system": "Bone", "assay": "Induction of bone regrowth in achondroplasia FVB mouse model assessed as improvement in dwarfism by measuring tibia size at 203 microg/kg, sc qd administered for 35 days", "assay_type": "functional", "conditions": "dose 203 µg/kg, time 35 day"}, "Bone [4]": {"system": "Bone", "assay": "Induction of bone regrowth in achondroplasia FVB mouse model assessed as improvement in dwarfism by measuring tibia size at 203 microg/kg, sc administered as continuous infusion for 35 days", "assay_type": "functional", "conditions": "dose 203 µg/kg, time 35 day"}, "[5]": {"assay": "Induction of bone regrowth in achondroplasia Cynomolgus monkey model assessed as improvement in dwarfism by measuring ulna size at 203 microg/kg, sc qd administered for 35 days", "assay_type": "functional, Macaca fascicularis", "conditions": "dose 203 µg/kg, time 35 day"}, "[6]": {"assay": "Induction of bone regrowth in achondroplasia Cynomolgus monkey model assessed as improvement in dwarfism by measuring tail size at 203 microg/kg, sc qd administered for 35 days", "assay_type": "functional, Macaca fascicularis", "conditions": "dose 203 µg/kg, time 35 day"}, "Bone [7]": {"system": "Bone", "assay": "Induction of bone regrowth in achondroplasia FVB mouse model assessed as improvement in dwarfism by measuring spine size at 203 microg/kg, sc qd administered for 35 days", "assay_type": "functional", "conditions": "dose 203 µg/kg, time 35 day"}, "Bone [8]": {"system": "Bone", "assay": "Induction of bone regrowth in achondroplasia FVB mouse model assessed as improvement in dwarfism by measuring spine size at 203 microg/kg, sc administered as continuous infusion for 35 days", "assay_type": "functional", "conditions": "dose 203 µg/kg, time 35 day"}, "Bone [9]": {"system": "Bone", "assay": "Induction of bone regrowth in achondroplasia C57BL/6 mouse model expressing FGFR3 Y367C mutant assessed as improvement in dwarfism by measuring femur bone size at 0.5 mg/kg, sc qd administered for 15 days", "assay_type": "functional", "conditions": "time 15 day"}, "Bone [10]": {"system": "Bone", "assay": "Induction of bone regrowth in achondroplasia C57BL/6 mouse model expressing FGFR3 Y367C mutant assessed as improvement in dwarfism by measuring femur bone size at 2 mg/kg, sc administered for 15 days", "assay_type": "functional", "conditions": "time 15 day"}, "Bone [11]": {"system": "Bone", "assay": "Induction of bone regrowth in achondroplasia C57BL/6 mouse model expressing FGFR3 Y367C mutant assessed as improvement in dwarfism by measuring tibia bone size at 0.5 mg/kg, sc qd administered for 15 days", "assay_type": "functional", "conditions": "time 15 day"}, "Bone [12]": {"system": "Bone", "assay": "Induction of bone regrowth in achondroplasia C57BL/6 mouse model expressing FGFR3 Y367C mutant assessed as improvement in dwarfism by measuring tibia bone size at 2 mg/kg, sc administered for 15 days", "assay_type": "functional", "conditions": "time 15 day"}, "Bone [13]": {"system": "Bone", "assay": "Induction of bone regrowth in achondroplasia C57BL/6 mouse model expressing FGFR3 Y367C mutant assessed as improvement in dwarfism by measuring humerus bone size at 0.5 mg/kg, sc qd administered for 15 days", "assay_type": "functional", "conditions": "time 15 day"}, "Bone [14]": {"system": "Bone", "assay": "Induction of bone regrowth in achondroplasia C57BL/6 mouse model expressing FGFR3 Y367C mutant assessed as improvement in dwarfism by measuring humerus bone size at 2 mg/kg, sc administered for 15 days", "assay_type": "functional", "conditions": "time 15 day"}, "Bone [15]": {"system": "Bone", "assay": "Induction of bone regrowth in achondroplasia C57BL/6 mouse model expressing FGFR3 Y367C mutant assessed as improvement in dwarfism by measuring ulna bone size at 0.5 mg/kg, sc qd administered for 15 days", "assay_type": "functional", "conditions": "time 15 day"}, "Bone [16]": {"system": "Bone", "assay": "Induction of bone regrowth in achondroplasia C57BL/6 mouse model expressing FGFR3 Y367C mutant assessed as improvement in dwarfism by measuring ulna bone size at 2 mg/kg, sc administered for 15 days", "assay_type": "functional", "conditions": "time 15 day"}, "Bone [17]": {"system": "Bone", "assay": "Induction of bone regrowth in achondroplasia C57BL/6 mouse model expressing FGFR3 Y367C mutant assessed as improvement in dwarfism by measuring foramen magnum bone size at 2 mg/kg, sc administered for 15 days", "assay_type": "functional", "conditions": "time 15 day"}, "Bone [18]": {"system": "Bone", "assay": "Induction of bone regrowth in achondroplasia C57BL/6 mouse model expressing FGFR3 Y367C mutant assessed as improvement in dwarfism by measuring tail bone size at 2 mg/kg, sc administered for 15 days", "assay_type": "functional", "conditions": "time 15 day"}, "Bone [19]": {"system": "Bone", "assay": "Induction of bone regrowth in achondroplasia C57BL/6 mouse model expressing FGFR3 Y367C mutant assessed as improvement in dwarfism by measuring anterior-posterior diameter of the skull size at 2 mg/kg, sc administered for 15 days", "assay_type": "functional", "conditions": "time 15 day"}, "Bone [20]": {"system": "Bone", "assay": "Induction of bone regrowth in achondroplasia C57BL/6 mouse model expressing FGFR3 Y367C mutant assessed as improvement in dwarfism by measuring L4-L6 spine segment size at 2 mg/kg, sc administered for 15 days", "assay_type": "functional", "conditions": "time 15 day"}, "Bone [21]": {"system": "Bone", "assay": "Induction of bone regrowth in achondroplasia mouse model expressing FGFR3 Y367C mutant assessed as improvement in dwarfism by measuring femur bone size at 240 microg/kg, sc qd administered for 21 days", "assay_type": "functional, organism-based", "conditions": "dose 240.0 µg/kg, time 21.0 day"}, "Bone [22]": {"system": "Bone", "assay": "Induction of bone regrowth in achondroplasia mouse model assessed as improvement in dwarfism by measuring femur bone size at 800 microg/kg, sc qd administered for 21 days", "assay_type": "functional, organism-based", "conditions": "dose 800.0 µg/kg, time 21.0 day"}, "Bone [23]": {"system": "Bone", "assay": "Induction of bone regrowth in achondroplasia mouse model expressing FGFR3 Y367C mutant assessed as improvement in dwarfism by measuring tibia bone size at 240 microg/kg, sc qd administered for 21 days", "assay_type": "functional, organism-based", "conditions": "dose 240.0 µg/kg, time 21.0 day"}, "Bone [24]": {"system": "Bone", "assay": "Induction of bone regrowth in achondroplasia mouse model assessed as improvement in dwarfism by measuring tibia bone size at 800 microg/kg, sc qd administered for 21 days", "assay_type": "functional, organism-based", "conditions": "dose 800.0 µg/kg, time 21.0 day"}, "Bone [25]": {"system": "Bone", "assay": "Induction of bone regrowth in achondroplasia mouse model expressing FGFR3 Y367C mutant assessed as improvement in dwarfism by measuring foramen magnum bone size at 240 microg/kg, sc qd administered for 21 days", "assay_type": "functional, organism-based", "conditions": "dose 240.0 µg/kg, time 21.0 day"}, "Bone [26]": {"system": "Bone", "assay": "Induction of bone regrowth in achondroplasia mouse model assessed as improvement in dwarfism by measuring foramen magnum bone size at 800 microg/kg, sc qd administered for 21 days", "assay_type": "functional, organism-based", "conditions": "dose 800.0 µg/kg, time 21.0 day"}, "Bone [27]": {"system": "Bone", "assay": "Induction of bone regrowth in achondroplasia mouse model expressing FGFR3 Y367C mutant assessed as improvement in dwarfism by measuring tail bone size at 240 microg/kg, sc qd administered for 21 days", "assay_type": "functional, organism-based", "conditions": "dose 240.0 µg/kg, time 21.0 day"}, "Bone [28]": {"system": "Bone", "assay": "Induction of bone regrowth in achondroplasia mouse model assessed as improvement in dwarfism by measuring tail bone size at 800 microg/kg, sc qd administered for 21 days", "assay_type": "functional, organism-based", "conditions": "dose 800.0 µg/kg, time 21.0 day"}, "Bone [29]": {"system": "Bone", "assay": "Induction of bone regrowth in achondroplasia mouse model expressing FGFR3 Y367C mutant assessed as improvement in dwarfism by measuring anterior-posterior diameter of the skull size at 240 microg/kg, sc qd administered for 21 days", "assay_type": "functional, organism-based", "conditions": "dose 240.0 µg/kg, time 21.0 day"}, "Bone [30]": {"system": "Bone", "assay": "Induction of bone regrowth in achondroplasia mouse model assessed as improvement in dwarfism by measuring anterior-posterior diameter of the skull size at 800 microg/kg, sc qd administered for 21 days", "assay_type": "functional, organism-based", "conditions": "dose 800.0 µg/kg, time 21.0 day"}, "Bone [31]": {"system": "Bone", "assay": "Induction of bone regrowth in achondroplasia mouse model expressing FGFR3 Y367C mutant assessed as improvement in dwarfism by measuring L4-L6 spine segment size at 240 microg/kg, sc qd administered for 21 days", "assay_type": "functional, organism-based", "conditions": "dose 240.0 µg/kg, time 21.0 day"}, "Bone [32]": {"system": "Bone", "assay": "Induction of bone regrowth in achondroplasia mouse model assessed as improvement in dwarfism by measuring L4-L6 spine segment size at 800 microg/kg, sc qd administered for 21 days", "assay_type": "functional, organism-based", "conditions": "dose 800.0 µg/kg, time 21.0 day"}}, "note": "Calls of active or inactive are those of the source. No cut-off for these calls is given here."}
{"compound": "CC[C@H](C)[C@@H]1NC(=O)[C@H](CCCNC(=N)N)NC(=O)[C@H](CC(=O)O)NC(=O)[C@H](CC(C)C)NC(=O)[C@H](CCCCN)NC(=O)[C@H](CC(C)C)NC(=O)CNC(=O)[C@H](Cc2ccccc2)NC(=O)[C@@H](NC(=O)CNC(=O)[C@H](CCCCN)NC(=O)[C@H](CO)NC(=O)[C@H](CC(C)C)NC(=O)CNC(=O)[C@H](CCCCN)NC(=O)[C@H](CCCCN)NC(=O)[C@H](CC(N)=O)NC(=O)[C@H](C)NC(=O)CNC(=O)[C@H](CCCCN)NC(=O)[C@H](Cc2ccc(O)cc2)NC(=O)[C@H](CCCCN)NC(=O)[C@H](CCCNC(=N)N)NC(=O)[C@H](C)NC(=O)[C@H](CC(N)=O)NC(=O)[C@@H]2CCCN2C(=O)[C@H](Cc2c[nH]cn2)NC(=O)[C@H](CCC(=O)O)NC(=O)[C@H](CCC(N)=O)NC(=O)[C@@H](N)CC(C)C)CSSC[C@@H](C(=O)O)NC(=O)CNC(=O)[C@H](CC(C)C)NC(=O)CNC(=O)[C@H](CO)NC(=O)[C@H](CCSC)NC(=O)[C@H](CO)NC(=O)CNC1=O", "values": [{"measurement": "Activity", "setting": "Bone [1]", "result": 5.5, "unit": "%"}, {"measurement": "Activity", "setting": "Bone [2]", "result": 7.1, "unit": "%"}, {"measurement": "Activity", "setting": "Bone [3]", "result": 4, "unit": "%"}, {"measurement": "Activity", "setting": "Bone [4]", "result": 12.2, "unit": "%"}, {"measurement": "Activity", "setting": "[5]", "result": 2.7, "unit": "%"}, {"measurement": "Activity", "setting": "[6]", "result": 9, "unit": "%"}, {"measurement": "Activity", "setting": "Bone [7]", "result": 11.3, "unit": "%"}, {"measurement": "Activity", "setting": "Bone [8]", "result": 25, "unit": "%"}]}
{"compound": "CCN1CCN(c2ccc(Nc3cc(N(C)C(=O)Nc4c(Cl)c(OC)cc(OC)c4Cl)ncn3)cc2)CC1", "note": "[INFIGRATINIB]", "values": [{"measurement": "Activity", "setting": "Bone [9]", "result": 11, "unit": "%"}, {"measurement": "Activity", "setting": "Bone [10]", "result": 20.9, "unit": "%"}, {"measurement": "Activity", "setting": "Bone [11]", "result": 16, "unit": "%"}, {"measurement": "Activity", "setting": "Bone [12]", "result": 32.6, "unit": "%"}, {"measurement": "Activity", "setting": "Bone [13]", "result": 7, "unit": "%"}, {"measurement": "Activity", "setting": "Bone [14]", "result": 11.9, "unit": "%"}, {"measurement": "Activity", "setting": "Bone [15]", "result": 11, "unit": "%"}, {"measurement": "Activity", "setting": "Bone [16]", "result": 22.3, "unit": "%"}, {"measurement": "Activity", "setting": "Bone [17]", "result": 16.8, "unit": "%"}, {"measurement": "Activity", "setting": "Bone [18]", "result": 26.5, "unit": "%"}, {"measurement": "Activity", "setting": "Bone [19]", "result": 20.9, "unit": "%"}, {"measurement": "Activity", "setting": "Bone [20]", "result": 12.1, "unit": "%"}]}
{"compound": "VOSORITIDE", "values": [{"measurement": "Activity", "setting": "Bone [21]", "result": 3.4, "unit": "%"}, {"measurement": "Activity", "setting": "Bone [22]", "result": 5.2, "unit": "%"}, {"measurement": "Activity", "setting": "Bone [23]", "result": 3.7, "unit": "%"}, {"measurement": "Activity", "setting": "Bone [24]", "result": 6.6, "unit": "%"}, {"measurement": "Activity", "setting": "Bone [25]", "result": "inactive"}, {"measurement": "Activity", "setting": "Bone [26]", "result": "inactive"}, {"measurement": "Activity", "setting": "Bone [27]", "result": "inactive"}, {"measurement": "Activity", "setting": "Bone [28]", "result": 8, "unit": "%"}, {"measurement": "Activity", "setting": "Bone [29]", "result": 2.9, "unit": "%"}, {"measurement": "Activity", "setting": "Bone [30]", "result": 4.8, "unit": "%"}, {"measurement": "Activity", "setting": "Bone [31]", "result": 2.8, "unit": "%"}, {"measurement": "Activity", "setting": "Bone [32]", "result": 3.3, "unit": "%"}]}
